# Key:
# Format in all cases: cell-based
# RIPK1 = target: T1, RIPK1 (Mus musculus, UniProt Q60855); test: streptavidin pull down from cell lysate, immunoblot
# T1 construct: endogenous, L929sAhFas and MEF cell lysates
# T1 sequence (Q60855 1-656): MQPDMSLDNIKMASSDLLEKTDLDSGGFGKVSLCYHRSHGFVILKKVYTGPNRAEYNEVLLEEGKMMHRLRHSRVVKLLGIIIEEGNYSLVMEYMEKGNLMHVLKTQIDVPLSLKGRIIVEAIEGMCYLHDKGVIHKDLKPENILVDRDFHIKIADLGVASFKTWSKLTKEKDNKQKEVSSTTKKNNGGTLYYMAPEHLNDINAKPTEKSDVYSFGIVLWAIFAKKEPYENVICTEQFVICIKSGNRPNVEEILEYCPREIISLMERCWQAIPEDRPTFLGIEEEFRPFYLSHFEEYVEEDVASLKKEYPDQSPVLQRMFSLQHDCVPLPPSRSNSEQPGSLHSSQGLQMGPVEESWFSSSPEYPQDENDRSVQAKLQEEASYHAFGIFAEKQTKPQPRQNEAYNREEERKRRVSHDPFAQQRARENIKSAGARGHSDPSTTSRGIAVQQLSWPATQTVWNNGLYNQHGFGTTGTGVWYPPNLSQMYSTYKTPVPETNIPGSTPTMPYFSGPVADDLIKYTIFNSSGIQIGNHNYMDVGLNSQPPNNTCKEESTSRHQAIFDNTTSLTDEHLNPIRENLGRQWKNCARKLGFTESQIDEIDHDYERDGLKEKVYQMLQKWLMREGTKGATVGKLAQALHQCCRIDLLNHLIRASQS
# RIPK3 = target: T2, RIPK3 (Mus musculus, UniProt Q9QZL0); test: as above
# T2 construct: endogenous, L929sAhFas and MEF cell lysates
# MLKL = target: T3, MLKL (Mus musculus, UniProt Q9D2Y4); test: streptavidin pull down from lysates, including RIPK1-/- and RIPK3-/- MEF
# T3 construct: endogenous, L929sAhFas and MEF cell lysates
# T3 sequence (Q9D2Y4 1-472): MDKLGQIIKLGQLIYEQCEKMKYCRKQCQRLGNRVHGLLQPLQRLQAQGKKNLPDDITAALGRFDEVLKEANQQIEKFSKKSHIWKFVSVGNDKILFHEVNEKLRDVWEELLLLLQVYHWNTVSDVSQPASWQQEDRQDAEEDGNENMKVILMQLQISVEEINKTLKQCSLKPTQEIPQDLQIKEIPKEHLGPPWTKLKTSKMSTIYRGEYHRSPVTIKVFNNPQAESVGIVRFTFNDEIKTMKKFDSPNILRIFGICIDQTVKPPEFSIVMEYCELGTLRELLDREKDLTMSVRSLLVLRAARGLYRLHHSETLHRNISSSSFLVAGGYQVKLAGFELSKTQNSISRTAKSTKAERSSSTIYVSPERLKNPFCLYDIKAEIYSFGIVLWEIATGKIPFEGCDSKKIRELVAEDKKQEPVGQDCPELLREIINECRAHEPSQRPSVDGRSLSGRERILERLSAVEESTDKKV
# B-Raf = target: T4, B-Raf (Mus musculus, UniProt P28028); test: streptavidin pull down from cell lysate, immunoblot
# T4 construct: gene Braf; endogenous, L929sAhFas cell lysate
# T4 sequence (P28028 2-751): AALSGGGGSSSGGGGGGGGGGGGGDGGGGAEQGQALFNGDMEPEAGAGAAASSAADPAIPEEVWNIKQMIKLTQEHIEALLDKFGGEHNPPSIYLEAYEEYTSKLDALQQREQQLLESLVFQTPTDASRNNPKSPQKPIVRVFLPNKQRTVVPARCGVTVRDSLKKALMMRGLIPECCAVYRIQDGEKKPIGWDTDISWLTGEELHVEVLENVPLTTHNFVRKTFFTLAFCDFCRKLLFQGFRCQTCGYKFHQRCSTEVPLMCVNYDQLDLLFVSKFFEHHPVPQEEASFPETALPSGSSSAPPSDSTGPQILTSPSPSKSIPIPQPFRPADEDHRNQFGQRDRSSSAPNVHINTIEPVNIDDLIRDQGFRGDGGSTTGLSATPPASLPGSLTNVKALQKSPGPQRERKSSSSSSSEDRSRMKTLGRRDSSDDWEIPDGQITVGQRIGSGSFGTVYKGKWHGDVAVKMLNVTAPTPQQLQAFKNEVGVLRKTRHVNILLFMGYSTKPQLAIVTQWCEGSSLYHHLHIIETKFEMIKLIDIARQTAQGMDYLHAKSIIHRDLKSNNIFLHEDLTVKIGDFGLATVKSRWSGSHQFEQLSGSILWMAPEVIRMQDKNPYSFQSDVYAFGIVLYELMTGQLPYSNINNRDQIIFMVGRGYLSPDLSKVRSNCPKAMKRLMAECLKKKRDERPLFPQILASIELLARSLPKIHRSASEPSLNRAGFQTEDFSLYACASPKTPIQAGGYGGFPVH
# T2 sequence (Q9QZL0 whole entry): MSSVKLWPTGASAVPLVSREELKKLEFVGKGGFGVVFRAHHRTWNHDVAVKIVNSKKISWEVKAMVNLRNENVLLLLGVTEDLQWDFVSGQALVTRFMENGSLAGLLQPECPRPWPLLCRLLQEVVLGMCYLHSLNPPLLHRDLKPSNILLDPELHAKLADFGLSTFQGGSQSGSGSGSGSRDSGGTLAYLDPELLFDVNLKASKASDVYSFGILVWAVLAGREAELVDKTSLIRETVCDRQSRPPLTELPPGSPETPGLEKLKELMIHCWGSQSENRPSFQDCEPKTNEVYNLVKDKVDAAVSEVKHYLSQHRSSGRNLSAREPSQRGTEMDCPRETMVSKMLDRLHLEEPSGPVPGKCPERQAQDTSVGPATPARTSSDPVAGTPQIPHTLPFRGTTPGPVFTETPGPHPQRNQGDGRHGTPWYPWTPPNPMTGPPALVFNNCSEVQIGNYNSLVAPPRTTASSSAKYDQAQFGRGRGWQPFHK
smiles,measurement,setting,value
"O=C(CCCC[C@@H]1SC[C@@H]2NC(=O)N[C@@H]21)NCCOCCOCCNC(=O)c1cc(Oc2ccc(NC(=O)Nc3ccc(Cl)c(C(F)(F)F)c3)cc2)ccn1 [compound 10, biotinylated Sorafenib]","streptavidin pull down from cell lysate, immunoblot",RIPK1,"We show a dose-dependent pull down of RIPK1, RIPK3, MLKL and B-Raf"
same,"streptavidin pull down from cell lysate, immunoblot",RIPK3,"We show a dose-dependent pull down of RIPK1, RIPK3, MLKL and B-Raf"
same,"streptavidin pull down from lysates, including RIPK1-/- and RIPK3-/- MEF",MLKL,"Sorafenib is likely to bind independently to RIPK1, RIPK3 or MLKL (Figure 4c), even in the absence of a necroptotic stimulus"
same,"streptavidin pull down from cell lysate, immunoblot",B-Raf,"We show a dose-dependent pull down of RIPK1, RIPK3, MLKL and B-Raf"
